From US8927572B2, “Crystal form I of salt of a dipeptidyl peptidase-IV inhibitor and preparation method and use thereof” (Xuanzhu Pharma Co., Ltd., priority 2011, dated 2015)
Where a name gives a salt, the structure may show the parent alone.

How the values were obtained:
[1] = In vivo pharmacokinetics in SD rats; set-up: species or system SD (Sprague Dwaley) rats
Protocol: (§1) Test sample: the crystal form I of dihydrochloride salt of Compound A prepared from Example 1.
Experimental Animals: SD (Sprague Dwaley) rats, quantity 12.
The SD rats were divided into two groups, namely Intravenous Injection group and Intragastric Administration group, and there were 6 rats in each group in which one half were female and the other were male. The dose administrated was always 10 mg/kg (in terms of Compound A). The volume administered by the intravenous injection route was 5 mL/kg, and the volume administered by the intragastric administration route was 10 mL/kg. The time points for sequential blood sampling were 0 minutes before administration (0 min), and 5 min, 15 min, 30 min, 1 h, 2 h, 4 h, 6 h, 8 h, 12 h and 24 h after administration. About 150 μL of blood was collected into a sodium heparin anticoagulation tube from the caudal vein or Inner canthus vein after administration. The whole blood was placed in a high-speed refrigerated centrifuge (8000 rpm, 0-4° C.) and centrifuged for 6 min. The supernatant of the blood plasma was separated and stored in a refrigerator for measurement. The centrifugation of all blood samples was completed within 30 min after blood collection. The concentration of Compound A in the blood plasma of SD rats was determined by LC-MS/MS method.
Analysis and processing of Data: The plasma concentration—time curve was plotted, and the pharmacokinetic parameters were calculated by using the non-compartment model in Phrsight Phoenix 6.1.

DPP-IV = DPP-IV (Homo sapiens, UniProt P27487); settings: background; described in CN201010291056.9; cited from earlier work
Sequence of DPP-IV (P27487 whole entry, species assumed): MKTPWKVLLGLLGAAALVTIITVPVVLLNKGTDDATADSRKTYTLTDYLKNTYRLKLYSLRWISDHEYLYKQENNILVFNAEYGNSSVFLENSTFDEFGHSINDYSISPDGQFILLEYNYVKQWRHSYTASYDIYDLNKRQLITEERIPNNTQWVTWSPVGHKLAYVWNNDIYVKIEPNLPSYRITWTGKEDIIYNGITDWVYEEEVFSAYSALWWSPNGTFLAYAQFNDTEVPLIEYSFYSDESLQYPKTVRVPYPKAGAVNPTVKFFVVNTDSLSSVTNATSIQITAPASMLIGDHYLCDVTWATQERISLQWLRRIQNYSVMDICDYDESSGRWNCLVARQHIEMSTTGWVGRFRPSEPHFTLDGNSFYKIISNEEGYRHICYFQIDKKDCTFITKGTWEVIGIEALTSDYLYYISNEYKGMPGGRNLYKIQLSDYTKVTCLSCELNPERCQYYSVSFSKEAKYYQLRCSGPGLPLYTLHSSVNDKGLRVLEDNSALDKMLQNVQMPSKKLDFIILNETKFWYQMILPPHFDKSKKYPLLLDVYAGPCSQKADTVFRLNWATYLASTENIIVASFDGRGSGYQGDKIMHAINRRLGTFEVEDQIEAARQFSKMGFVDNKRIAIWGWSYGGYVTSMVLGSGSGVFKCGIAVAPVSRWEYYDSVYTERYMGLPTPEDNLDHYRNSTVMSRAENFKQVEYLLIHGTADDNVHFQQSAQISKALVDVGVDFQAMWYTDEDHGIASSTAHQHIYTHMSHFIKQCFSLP

[2] = Investigation on the water solubility; assay type: physicochemical
Excerpt: Investigation on the Water Solubility of Crystal Form I of Dihydrochloride Salt of Compound A

Long-term stability test = assay type: physicochemical; settings: for Content of Compound A (%) / Content of Relevant Substance (%) / Properties: 25° C.±2° C., RH 60%±10%
Protocol: The Test Conditions for Investigating the Long-Term Stability:
Each of the test samples was placed at a temperature of 25° C.±2° C. and a humidity of RH 60%±10%. Sampling was performed at the end of Months 3, 6, 9, 12 and 18 respectively, and Relevant Substance and the content of Compound A were measured and compared with those of the sample on Day 0. During the investigation, the sample was packed with a plastic bag for packing drugs as the inner layer and an aluminium foil as the outer layer.
(§2) The content was measured by using an External Standard method in accordance with the High Performance Liquid Chromatography in Chinese Pharmacopoeia, Appendix V D, Edition 2010.
(§3) Measurement of Relevant Substance
(§4) The Relevant Substance was measured by using an Area Normalization method in accordance with the High Performance Liquid Chromatography in Chinese Pharmacopoeia, Appendix V D, Edition 2010.

[3] = Influence factor stability test (high temperature, high humidity, light irradiation); assay type: physicochemical
Protocol: The crystal form I of dihydrochloride salt of Compound A prepared from Example 1.
The Test Conditions for Investigating the Influencing Factors:
Each of the test samples was placed at a high temperature of 60° C. (packed with an plastic bag for packing drugs as the inner layer and an aluminium foil as the outer layer), a high humidity of RH75%±5% (uniformly spread on a dry and clean watch glass), and a light irradiation of 4500 Lx±500 Lx (uniformly spread on a dry and clean watch glass). Sampling was performed on Day 5 and Day 10 respectively, and Relevant Substance and the content of Compound A were measured and compared with those of the sample on Day 0.
as §2, §3, §4

blood glucose = assay: Oral Glucose Tolerance Test (OGTT) in mice; assay type: in vivo, Mice C57BL/6; settings: for inhibition ratio for the blood glucose AUC: glucose 3 g/kg
Protocol: as §1
Experimental animals: Mice C57BL/6, quantity 40.
On the day before the test, the food for mice was removed at 5 p.m., and the mice were fasted overnight. On the second day, the fasting blood glucose of each mouse was checked at 9 a.m. and recorded as −30 min blood glucose. The body weight was weighed and recorded. After balancing the blood glucose level and body weight, the mice were randomly divided into four groups, namely Background Control group, Vehicle Control group, Dosing group 1 and Dosing group 2. To the later three groups, a vehicle (0.9% sodium chloride injection solution), 1 mg/kg test sample and 3 mg/kg test sample was administered respectively, and the volume administered was 10 mL/kg. The blood glucose of each mouse was measured and recorded as 0 min blood glucose 30 minutes after the intragastric administration. Afterwards glucose was further administered via intragastric administration at a dose of 3 g/kg to the Vehicle Control group, Dosing group 1 and Dosing group 2, and 0.9% sodium chloride injection solution was administered via intragastric administration to the Background Control group at an intragastric administration volume of 10 mL/kg. Then, the blood glucose levels were measured at 20, 40, 60 and 120 minutes after the administration of glucose or sodium chloride solution.
Analysis and Processing of the Data:
The area under the time-blood glucose curve of the OGTT (Oral Glucose Tolerance Test) (AUC) was calculated. A net variable AUC (ΔAUC) was obtained by subtracting the AUC of Background Control group from that of Vehicle Control group, Dosing groups 1 and 2. The inhibition ratio (%)=100×(ΔAUCVehicle Control group-ΔAUC)/ΔAUCVehicle Control group, wherein ΔAUC is the net variable AUC of each Dosing group, and ΔAUCVehicle Control group is the net variable AUC of Vehicle Control group. The data of Dosing groups were compared with that of Vehicle Control group by using t-test value analysis, and the difference was considered significant at p<0.05.

[4] = intravenous injection, 10 mg/kg (in terms of Compound A)

Structure (SMILES): Cc1cc(N2CCC[C@@H](N)C2)c2c(n1)n(C)c(=O)n2Cc1ccccc1C#N
- bioavailability ([1]; both sexes, Sprague-Dawley, rat, plasma, oral, intragastric vs intravenous, 10 mg/kg (in terms of Compound A), read-out: bioavailability (F %)): 96.6%

Structure (SMILES): Cc1cc(N2CCC[C@@H](N)C2)c2c(n1)n(C)c(=O)n2Cc1ccccc1C#N [Compound A, (R)-2-[[7-(3-aminopiperidin-1-yl)-3,5-dimethyl-2-oxo-2,3-dihydro-1H-imidazo[4,5-b]pyridin-1-yl]methyl]benzonitrile]
- inhibitory effect for DPP-IV (in words) (DPP-IV): strong inhibitory effect
- selectivity for DPP-IV (in words) (DPP-IV): very high selectivity
- Water solubility [2]: <0.1 mg/mL
- Water solubility (in words) [2]: hardly dissolved or insoluble in water

Structure (SMILES): Cc1cc(N2CCC[C@@H](N)C2)c2c(n1)n(C)c(=O)n2Cc1ccccc1C#N [crystal form I of dihydrochloride salt of Compound A]
- in vivo bioavailability (in words) [1]: high
- apparent volume of distribution (Vd) [1, 4]: 6.17 L/kg
- plasma clearance (CL) [1, 4]: 2.40 L/h/kg
- Content of Compound A (%) (Long-term stability test; Month 0): 99.53%
- Content of Relevant Substance (%) (Long-term stability test; Month 0): 0.211%
- Properties (Long-term stability test; Month 0): white crystalline
- Content of Compound A (%) (Long-term stability test; Month 3): 99.32%
- Content of Relevant Substance (%) (Long-term stability test; Month 3): 0.251%
- Properties (Long-term stability test; Month 3): white crystalline
- Content of Compound A (%) (Long-term stability test; Month 6): 99.19%
- Content of Relevant Substance (%) (Long-term stability test; Month 6): 0.246%
- Properties (Long-term stability test; Month 6): white crystalline
- Content of Compound A (%) (Long-term stability test; Month 9): 98.99%
- Content of Relevant Substance (%) (Long-term stability test; Month 9): 0.248%
- Properties (Long-term stability test; Month 9): white crystalline
- Content of Compound A (%) (Long-term stability test; Month 12): 99.17%
- Content of Relevant Substance (%) (Long-term stability test; Month 12): 0.221%
- Properties (Long-term stability test; Month 12): white crystalline
- Content of Compound A (%) (Long-term stability test; Month 18): 99.37%
- Content of Relevant Substance (%) (Long-term stability test; Month 18): 0.221%
- Properties (Long-term stability test; Month 18): white crystalline
- Relevant Substance and the content of Compound A (change, in words) (Long-term stability test; long-term stability investigating test): substantially unchanged
- Content of Compound A (%) ([3]; 60° C., Day 5): 98.80%
- Content of Relevant Substance (%) ([3]; 60° C., Day 5): 0.156%
- Properties ([3]; 60° C., Day 5): white crystalline
- Content of Compound A (%) ([3]; 60° C., Day 10): 99.42%
- Content of Relevant Substance (%) ([3]; 60° C., Day 10): 0.142%
- Properties ([3]; 60° C., Day 10): white crystalline
- Content of Compound A (%) ([3]; 4500Lx ± 500Lx, Day 5): 98.09%
- Content of Relevant Substance (%) ([3]; 4500Lx ± 500Lx, Day 5): 0.194%
- Properties ([3]; 4500Lx ± 500Lx, Day 5): white crystalline
- Content of Compound A (%) ([3]; 4500Lx ± 500Lx, Day 10): 99.17%
- Content of Relevant Substance (%) ([3]; 4500Lx ± 500Lx, Day 10): 0.159%
- Properties ([3]; 4500Lx ± 500Lx, Day 10): white crystalline
- Content of Compound A (%) ([3]; Day 0): 99.16%
- Content of Relevant Substance (%) ([3]; Day 0): 0.151%
- Properties ([3]; Day 0): white crystalline
- Content of Compound A (%) ([3]; RH 75% ± 5%, Day 5): 99.30%
- Content of Relevant Substance (%) ([3]; RH 75% ± 5%, Day 5): 0.200%
- Properties ([3]; RH 75% ± 5%, Day 5): white crystalline
- Content of Compound A (%) ([3]; RH 75% ± 5%, Day 10): 99.55%
- Content of Relevant Substance (%) ([3]; RH 75% ± 5%, Day 10): 0.171%
- Properties ([3]; RH 75% ± 5%, Day 10): white crystalline
- Relevant Substance and the content of Compound A (change, in words) ([3]; high temperature, high humidity and light irradiation): substantially unchanged
- effect for reducing blood glucose (in words) (blood glucose; mice C57BL/6): significant effect for reducing blood glucose
- inhibition ratio for the blood glucose AUC (blood glucose; mice C57BL/6, 1 mg/kg intragastric): 57%
- inhibition ratio for the blood glucose AUC (blood glucose; mice C57BL/6, 3 mg/kg intragastric): 65%
- Water solubility [2]: >1000 mg/mL
- Water solubility (in words) [2]: dissolved very easily in water
